This note sets out measurements from patent publication US20080125460A1, “Imidazopyridine-Derivatives As Inducible No-Synthase Inhibitors” (Altana Pharma AG, priority 2003, published 2008).

Data set [1] concerns the target human inducible NO-synthase (Homo sapiens, UniProt P35228). In words: Measurement of inducible NO-synthase activity ([3H]arginine conversion). The format is biochemical. Conditions: crude cytosolic fraction containing human inducible NO-synthase; 0.1 μM arginine; 45 to 60 min at 37° C.; read-out: Inhibition of iNOS activity [measured as -logIC50 (mol/l)] (converted). On the procedure:
The assay is performed in 96well microtiter F-plates (Greiner, Frickenhausen, FRG) in a total volume of 100 μl in the presence of 100 nM calmodulin, 226 μM CaCl2, 477 μM MgCl2, 5 μM flavin-adenine-dinucleotide (FAD), 5 μM flavin mononucleotide (FMN), 0.1 mM NADPH, 7 mM glutathione, 10 μM BH4 and 100 mM HEPES pH 7.2. Arginine concentrations are 0.1 μM for enzyme inhibition experiments. 150000 dpm of [^3H]arginine are added to the assay mixture. Enzyme reaction is started by the addition of 4 μg of a crude cytosolic fraction containing human inducible NO-synthase and the reaction mixture is incubated for 45 to 60 min at 37° C. Enzyme reaction is stopped by adding 10 μl of 2M MES-buffer pH 5.0. 50 μl of the incubation mixture are transferred into a MADP N65 filtration microtiter plate (Millipore, Eschborn, FRG) containing already 50 μl of AG-50W-X8 cation exchange resin (Biorad, München, FRG). The resin in the Na loaded form is pre-equilibrated in water and 70 μl (corresponding to 50 μl dry beads) are pipetted under heavy stirring with a 8 channel pipette into the filtration plate. After pipetting 50 μl of the enzyme reaction mixture onto the filtration plates, the plates are placed on a filtration manifold (Porvair, Shepperton, UK) and the flow through is collected in Pico scintillation plates (Packard, Meriden, CT). The resin in the filtration plates is washed with 75 μl of water (1×50 μl and 1×25 μl) which is also collected in the same plate as the sample. The total flow through of 125 μl is mixed with 175 μl of Microscint-40 scintillation cocktail (Packard) and the scintillation plate is sealed with TopSeal P-foil (Packard). Scintillation plates are counted in a scintillation counter.
For the measurement of inducible NO-synthase-inhibiting potencies of compounds increasing concentrations of inhibitors were included into the incubation mixture. IC50-values were calculated from the percent inhibition at given concentrations by nonlinear least square fitting.

As usually defined, the melting point is the temperature of the solid-liquid transition. The compound `COc1ccnc(CCc2nc3cc(-c4ccco4)cnc3[nH]2)c1` [Example 1, 6-Furan-2-yl-[2-(4-methoxypyridin-2-yl)ethyl]-3H-imidazo[4,5-b]pyridine] returned a melting point of 147 to 148 °C. Moreover, the IC50 in data set [1] was 49 nM.

On to `COc1ccnc(CCc2nc3cc(-c4nc5cc(C)ccc5[nH]4)cnc3[nH]2)c1` [Example 8, 2-[2-(4-Methoxy-pyridin-2-yl)-ethyl]-6-(5-methyl-1H-benzoimidazol-2-yl)-3H-imidazo[4,5-b]pyridine], for which the IC50 in data set [1] is 30.9 to 245 nM. Still for that read-out and setting: under `COc1ccnc(CCc2nc3cc(-c4cc5ccccc5s4)cnc3[nH]2)c1` [Example 11, 6-Benzo[b]thiophen-2-yl-2-[2-(4-methoxy-pyridin-2-yl)-ethyl]-3H-imidazo[4,5-b]pyridine] stands 30.9 to 245 nM; under `COc1ccnc(CCc2nc3cc(-c4cc5ccccc5o4)cnc3[nH]2)c1` [Example 10, 6-Benzofuran-2-yl-2-[2-(4-methoxy-pyridin-2-yl)-ethyl]-3H-imidazo[4,5-b]pyridine], 30.9 to 245 nM. On the same count and under the same terms, next, `COc1ccnc(CCc2nc3cc(-c4ccc(-c5ccccc5)s4)cnc3[nH]2)c1` [Example 13, 2-[2-(4-Methoxy-pyridin-2-yl)-ethyl]-6-(5-phenyl-thiophen-2-yl)-3H-imidazo[4,5-b]pyridine]: 30.9 to 245 nM. `COc1ccnc(CCc2nc3cc(-c4ccc5[nH]ccc5c4)cnc3[nH]2)c1` [Example 6, 6-(1H-Indol-5-yl)-2-[2-(4-methoxypyridin-2-yl)ethyl)-3H-imidazo-[4,5-b]pyridine] returned a melting point of 241 to 242 °C. Further, in data set [1], the IC50 is 49 nM.

`COc1ccnc(CCc2nc3cc(-c4ccncc4)cnc3[nH]2)c1` [Example 3, 2-[2-(4-Methoxypyridin-2-yl)ethyl]-6-(pyridin-4-yl)-3H-imidazo-[4,5-b]pyridine]: the melting point fell in the range of 237 to 238 °C. Moreover, the IC50 in data set [1] was 55 nM. For `COc1ccnc(CCc2nc3cc(-c4ccoc4)cnc3[nH]2)c1` [Example 2, 6-Furan-3-yl-[2-(4-methoxypyridin-2-yl)ethyl]-3H-imidazo[4,5-b]pyridine] the same measures were 193 to 194 °C and 45.7 nM. The like results for `COc1ccnc(CCc2nc3cc(-c4ccsc4)cnc3[nH]2)c1` [Example 5, 2-[2-(4-Methoxypyridin-2-yl)ethyl]-6-(thiophen-3-yl)-3H-imidazo-[4,5-b]pyridine] were, in that order, 154 to 155 °C and 34.7 nM. In the case of `COc1ccnc(CCc2nc3cc(-c4ccc(C)s4)cnc3[nH]2)c1` [Example 12, 2-[2-(4-Methoxy-pyridin-2-yl)-ethyl]-6-(5-methyl-thiophen-2-yl)-3H-imidazo[4,5-b]pyridine], in data set [1], the IC50 was 30.9 to 245 nM.

Turning to `COc1ccnc(CCc2nc3cc(-c4csc5ccccc45)cnc3[nH]2)c1` [Example 9, 6-Benzo[b]thiophen-3-yl-2-[2-(4-methoxy-pyridin-2-yl)-ethyl]-3H-imidazo[4,5-b]pyridine], the IC50 in data set [1] was 30.9 to 245 nM. Same read-out and setting: under `COc1ccnc(CCc2nc3cc(-c4nc5ccccc5[nH]4)cnc3[nH]2)c1` [Example 7, 6-(1H-Benzoimidazol-2-yl)-2-[2-(4-methoxy-pyridin-2-yl)-ethyl]-3H-imidazo[4,5-b]pyridine] stands 30.9 to 245 nM. Turning to `COc1ccnc(CCc2nc3cc(-c4cccs4)cnc3[nH]2)c1` [Example 4, 2-[2-(4-Methoxypyridin-2-yl)ethyl]-6-(thiophen-2-yl)-3H-imidazo-[4,5-b]pyridine], the melting point was in the range of 132 to 133 °C. Further, the IC50 in data set [1] was 24.5 nM.
